Results taken from US8735364B2, “Antisense modulation of apolipoprotein B expression” (Genzyme Corporation, priority 2001, dated 2014).

How the values were obtained:
Type in all cases: in vivo, mouse
[1] = Liver enzyme levels in ApoE knockout mice; conditions: for Liver Enzyme Levels AST: Control 55; for Liver Enzyme Levels ALT: Control 56
Excerpt: Female ApoE knockout mice ranged in age from 5 to 7 weeks and were placed on a normal diet for 2 weeks before study initiation. ApoE knockout mice were then fed ad libitum a 60% fat diet, with 0.15% added cholesterol to induce dyslipidemia and obesity. […]
At study termination and forty eight hours after the final injections, animals were sacrificed and evaluated for target mRNA levels in liver by RT-PCR methods verified by Northern Blot analysis, glucose levels, cholesterol and lipid levels by HPLC separation methods and triglyceride and liver enzyme levels (perfomed by LabCorp Preclinical Services; San Diego, Calif.). Data are normalized to saline controls.

apolipoprotein B mRNA [2] = assay: Target mRNA levels in liver, lean vs high fat fed C57BL/6 mice; conditions: 50 mg/kg i.p. every three days, six weeks
Description: (§1) Male C57BL/6 mice were divided into two matched groups; (1) wild-type control animals (lean animals) and (2) animals receiving a high fat diet (60% kcal fat). Control animals received saline treatment and were maintained on a normal rodent diet. After overnight fasting, mice from each group were dosed intraperitoneally every three days with saline or 50 mg/kg ISIS 147764 (SEQ ID No: 109) for six weeks. At study termination and forty eight hours after the final injections, animals were sacrificed and evaluated for target mRNA levels in liver, cholesterol and triglyceride levels, liver enzyme levels and serum glucose levels.

[3] = Lipoprotein (VLDL, LDL, HDL) levels, high fat fed mice, 6 week study; conditions: for HDL Percent Inhibition / LDL Percent Inhibition / VLDL Percent Inhibition: negative = increase
Description: (§2) Male C57BL/6 mice (n=8) receiving a high fat diet (60% kcal fat) were evaluated over the course of 6 weeks for the effects of treatment with the antisense oligonucleotide, ISIS 147764. Control animals received saline treatment (50 mg/kg). A subset of animals received a daily oral dose (20 mg/kg) atorvastatin calcium (Lipitor®, Pfizer Inc.). All mice, except atorvastatin-treated animals, were dosed intraperitoneally every three days (twice a week), after fasting overnight, with 5, 25, 50 mg/kg ISIS 147764 (SEQ ID No: 109) or saline (50 mg/kg) for six weeks. Serum cholesterol and lipoproteins were analyzed at 0, 2 and 6 week interim timepoints. At study termination, animals were sacrificed 48 hours after the final injections and evaluated for levels of target mRNA levels in liver, cholesterol, lipoprotein, triglyceride, liver enzyme (AST and ALT) and serum glucose levels as well as body, liver, spleen and fat pad weights.
(§3) Male C57BL/6 mice (n=8) receiving a high fat diet (60% kcal fat) were evaluated over the course of 6 weeks for the effects of ISIS 147764 on lipoprotein (VLDL, LDL and HDL) levels. Control animals received saline treatment (50 mg/kg). Mice were dosed intraperitoneally every three days (twice a week), after fasting overnight, with 5, 25, 50 mg/kg ISIS 147764 (SEQ ID No: 109) or saline (50 mg/kg) for six weeks.
Values in the table are expressed as percent inhibition and are normalized to the saline control. Negative values indicate an observed increase in lipoprotein levels.

[4] = Cholesterol, lipoprotein, triglyceride and serum glucose levels, lean vs high fat fed C57BL/6 mice; conditions: 50 mg/kg i.p. every three days, six weeks
Description: as §1

apolipoprotein B mRNA [5] = assay: Target mRNA levels in liver, high fat fed mice, 6 week timecourse study; conditions: high fat fed C57BL/6 mice, six weeks
Description: as §2
as §3, with “mRNA expression.” for “lipoprotein (VLDL, LDL and HDL) levels.”, “weeks. At study termination, animals were sacrificed 48 hours after the final injections and evaluated for levels of target mRNA levels in liver.” for “weeks.”

[6] = Serum AST and ALT levels, high fat fed mice, 6 week study; conditions: for ALT levels / AST levels: 6 weeks; for ALT levels: saline control 25 IU/L; for AST levels: saline control 65 IU/L
Description: as §2
as §3, with “liver enzyme (AST” for “lipoprotein (VLDL, LDL”, “ALT)” for “HDL)”
Values in the table are expressed as IU/L. Increased levels of the liver enzymes ALT and AST indicate toxicity and liver damage.

## GTCCCTGAAGATGTCAATGC (2'-MOE gapmer with phosphorothioates, pattern not given here) [ISIS 147764, 2′-MOE gapmer phosphorothioate oligonucleotide to mouse apolipoprotein B]
[1]
  changes in liver enzyme levels: No significant changes
[1]; 5 mg/kg
  Liver Enzyme Levels AST: 50 IU/L
  Liver Enzyme Levels ALT: 48 IU/L
[1]; 25 mg/kg
  Liver Enzyme Levels AST: 60 IU/L
  Liver Enzyme Levels ALT: 59 IU/L
[1]; 50 mg/kg
  Liver Enzyme Levels AST: 85 IU/L
  Liver Enzyme Levels ALT: 87 IU/L
Apolipoprotein B mRNA [2]; high fat fed (60% kcal fat) C57BL/6 mice
  mRNA Percent Change: −87%
Apolipoprotein B mRNA [2]; lean C57BL/6 mice
  mRNA Percent Change: −73%
[3]; 5 mg/kg, 0 weeks
  HDL Percent Inhibition: 0%
  LDL Percent Inhibition: 2%
  VLDL Percent Inhibition: 0%
[3]; 5 mg/kg, 2 weeks
  HDL Percent Inhibition: 5%
  LDL Percent Inhibition: −30%
  VLDL Percent Inhibition: 25%
[3]; 5 mg/kg, 6 weeks
  HDL Percent Inhibition: 10%
  LDL Percent Inhibition: −10%
  VLDL Percent Inhibition: 10%
[3]; 25 mg/kg, 0 weeks
  HDL Percent Inhibition: 0%
  LDL Percent Inhibition: 0%
  VLDL Percent Inhibition: 0%
[3]; 25 mg/kg, 2 weeks
  HDL Percent Inhibition: 10%
  LDL Percent Inhibition: 10%
  VLDL Percent Inhibition: 30%
[3]; 25 mg/kg, 6 weeks
  HDL Percent Inhibition: 45%
  LDL Percent Inhibition: 55%
  VLDL Percent Inhibition: −30%
[3]; 50 mg/kg
  lowering all categories of serum lipoproteins investigated, compared with atorvastatin: to a greater extent than atorvastatin
[3]; 50 mg/kg, 0 weeks
  HDL Percent Inhibition: 0%
  LDL Percent Inhibition: 0%
  VLDL Percent Inhibition: 0%
[3]; 50 mg/kg, 2 weeks
  HDL Percent Inhibition: 10%
  LDL Percent Inhibition: 40%
  VLDL Percent Inhibition: 40%
[3]; 50 mg/kg, 6 weeks
  HDL Percent Inhibition: 50%
  LDL Percent Inhibition: 90%
  VLDL Percent Inhibition: 15%
[4]; high fat fed C57BL/6 mice
  CHOL Percent Change: −67%
  GLUC Percent Change: −28%
  Lipoproteins HDL Percent Change: −65%
  Lipoproteins LDL Percent Change: −87%
  Lipoproteins VLDL Percent Change: No
  TRIG Percent Change: No
[4]; lean C57BL/6 mice
  CHOL Percent Change: −63%
  GLUC Percent Change: No
  Lipoproteins HDL Percent Change: −44%
  Lipoproteins LDL Percent Change: −64%
  Lipoproteins VLDL Percent Change: No
  TRIG Percent Change: −34%
Apolipoprotein B mRNA [5]; 5 mg/kg i.p. every three days
  reduction of target mRNA levels in liver: 15%
Apolipoprotein B mRNA [5]; 25 mg/kg i.p. every three days
  reduction of target mRNA levels in liver: 75%
Apolipoprotein B mRNA [5]; 50 mg/kg i.p. every three days
  reduction of target mRNA levels in liver: 88%
[6]; 5 mg/kg
  ALT levels: 50 IU/L
  AST levels: 105 IU/L
[6]; 25 mg/kg
  ALT levels: 70 IU/L
  AST levels: 70 IU/L
[6]; 50 mg/kg
  ALT levels: 100 IU/L
  AST levels: 80 IU/L
[6]; 5, 25 and 50 mg/kg
  change in AST levels over the duration of the study compared to saline controls: no significant change
